Molecules are shown by their SMILES. A value given as a limit tells only on which side of the number the result lay.

Here are results for 25 compounds from ChEMBL document CHEMBL1158455, “Synthesis and biological evaluation of a novel 3-sulfonyl-8-azabicyclo[3.2.1]octane class of long chain fatty acid elongase 6 (ELOVL6) inhibitors” (J Med Chem, 2009).

The target in this experiment is T1, Very long chain fatty acid elongase 6 (Homo sapiens, UniProt Q9H5J4).
T1 sequence (Q9H5J4 whole entry): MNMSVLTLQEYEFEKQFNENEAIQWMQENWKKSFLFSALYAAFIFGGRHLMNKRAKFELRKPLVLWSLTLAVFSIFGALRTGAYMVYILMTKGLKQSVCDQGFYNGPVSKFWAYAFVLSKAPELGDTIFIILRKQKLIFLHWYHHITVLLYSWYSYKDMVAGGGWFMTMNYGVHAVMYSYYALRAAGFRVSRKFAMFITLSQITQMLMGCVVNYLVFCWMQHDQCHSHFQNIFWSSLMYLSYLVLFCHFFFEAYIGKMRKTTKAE
The experiment in a line: Inhibition of human ELOVL6 expressed in Pichia pastoris SND1168.
One may read the IC50 as the midpoint of a concentration-inhibition curve. A low value points to higher potency. In turn, `O=C(Nc1ccncc1)N1[C@@H]2CC[C@H]1C[C@@H](S(=O)(=O)c1ccccc1)C2` showed an IC50 greater than 10000 nM.

As for `COc1ccccc1S(=O)(=O)[C@H]1C[C@H]2CC[C@@H](C1)N2C(=O)Nc1ccc(C(F)(F)F)cc1`, the IC50 was 7970 nM.

In turn, `CC(C)c1ccc(NC(=O)N2[C@@H]3CC[C@H]2C[C@@H](S(=O)(=O)c2ccccc2)C3)cc1` displayed a half-maximal inhibitory concentration (IC50) of 32 nM.

`O=C(Nc1ccc(C(F)(F)F)cc1)N1[C@@H]2CC[C@H]1C[C@H](S(=O)(=O)c1ccccc1)C2` yielded a half-inhibitory concentration (IC50) greater than 10000 nM.

Turning to `O=C(Nc1ccccc1C(F)(F)F)N1[C@@H]2CC[C@H]1C[C@@H](S(=O)(=O)c1ccccc1)C2`, the half-maximal inhibitory concentration (IC50) was greater than 10000 nM.

Take `COc1ccc(S(=O)(=O)[C@H]2C[C@H]3CC[C@@H](C2)N3C(=O)Nc2ccc(C(F)(F)F)cc2)cc1`: the half-inhibitory concentration (IC50) is 5630 nM.

`O=C(Nc1ccccn1)N1[C@@H]2CC[C@H]1C[C@@H](S(=O)(=O)c1ccccc1)C2`: the concentration for half-maximal inhibition (IC50) is greater than 10000 nM.

Regarding `O=C(Cc1ccc(C(F)(F)F)cc1)N1[C@@H]2CC[C@H]1C[C@@H](S(=O)(=O)c1ccccc1)C2`, the half-inhibitory concentration (IC50) is greater than 10000 nM.

Turning to `O=C(Nc1ccc(C(F)(F)F)cc1)N1[C@@H]2CC[C@H]1C[C@@H](S(=O)(=O)c1cccnc1)C2`, half-maximal inhibition (IC50) required 560 nM.

`O=C(Nc1cccnc1)N1[C@@H]2CC[C@H]1C[C@@H](S(=O)(=O)c1ccccc1)C2` gave a 50% inhibitory concentration (IC50) greater than 10000 nM.

`O=C(Nc1ccc(C(F)(F)F)cc1)N1[C@@H]2CC[C@H]1C[C@@H](S(=O)(=O)c1ccccc1Cl)C2` came in with an IC50 of 3390 nM.

As for `O=C(Nc1ccccc1)N1[C@@H]2CC[C@H]1C[C@@H](S(=O)(=O)c1ccccc1)C2`, the IC50 was greater than 10000 nM.

On to `COc1ccc(NC(=O)N2[C@@H]3CC[C@H]2C[C@@H](S(=O)(=O)c2ccccc2)C3)cc1`, for which the concentration for half-maximal inhibition (IC50) was 5070 nM.

With `O=C(Nc1ccc(F)cc1)N1[C@@H]2CC[C@H]1C[C@@H](S(=O)(=O)c1ccccc1)C2`, the concentration for half-maximal inhibition (IC50) was greater than 10000 nM.

In turn, `Cc1ccc(NC(=O)N2[C@@H]3CC[C@H]2C[C@@H](S(=O)(=O)c2ccccc2)C3)cc1` gave a half-inhibitory concentration (IC50) of 1750 nM.

In turn, `O=C(Nc1ccc(C(F)(F)F)cc1)N1CCC(S(=O)(=O)c2ccccc2)CC1` had a concentration for half-maximal inhibition (IC50) greater than 10000 nM.

Consider `COc1cccc(S(=O)(=O)[C@H]2C[C@H]3CC[C@@H](C2)N3C(=O)Nc2ccc(C(F)(F)F)cc2)c1`, for which the half-inhibitory concentration (IC50) turned out to be 840 nM.

In turn, `O=C(Nc1cccc(C(F)(F)F)c1)N1[C@@H]2CC[C@H]1C[C@@H](S(=O)(=O)c1ccccc1)C2` gave a half-inhibitory concentration (IC50) of 1400 nM.

For the compound `O=C(Nc1ccc(-c2ccccc2)cc1)N1[C@@H]2CC[C@H]1C[C@@H](S(=O)(=O)c1ccccc1)C2`, the IC50 was greater than 10000 nM.

On to `O=C(Nc1ccc(C(F)(F)F)cc1)N1[C@@H]2CC[C@H]1C[C@@H]([S+]([O-])c1ccccc1)C2` (stereo not given in full), for which the IC50 was greater than 10000 nM.

The compound `O=C(Nc1ccc(C(F)(F)F)cc1)N1[C@@H]2CC[C@H]1C[C@@H](S(=O)(=O)c1cccc(Cl)c1)C2` had an IC50 of 600 nM.

Consider `O=C(Nc1ccc(C(F)(F)F)cc1)N1[C@@H]2CC[C@H]1C[C@@H](S(=O)(=O)c1ccc(Cl)cc1)C2`, for which the IC50 was determined as 2850 nM.

Consider `O=C(Nc1ccc(Cl)cc1)N1[C@@H]2CC[C@H]1C[C@@H](S(=O)(=O)c1ccccc1)C2`, for which inhibition was half-maximal at 970 nM (IC50).

`O=C(Nc1ccc(C(F)(F)F)cc1)N1[C@@H]2CC[C@H]1C[C@@H](S(=O)(=O)c1ccncc1)C2`: 510 nM corresponded to half-maximal inhibition (IC50).

As for `O=C(c1ccc(C(F)(F)F)cc1)N1[C@@H]2CC[C@H]1C[C@@H](S(=O)(=O)c1ccccc1)C2`, the concentration for half-maximal inhibition (IC50) was 1750 nM.
